Assay results taken from patent US10130602B2, “Use of L-carnitine, salts and derivatives thereof for reducing or preventing fatigue and improving cognitive function” (priority 2011, dated 2018).

Columns and labels:
Format in all cases: in vivo, human
[1] = test system: healthy, young male and female adults; assay: Bond-Lader mood scales
Experimental: (§1) In the current double-blind, placebo-controlled, balanced cross-over experiment we assessed the effects of single doses of LC (500 mg and 2000 mg) and ALC (1000 mg), administered on separate occasions, on mental fatigue and cognitive function during extended performance of mentally demanding tasks in healthy, young male and female adults.
(§2) 20 healthy adults (10 male, 10 female, 18 to 25 years) who had not taken prescription or illicit drugs or any food supplements within the preceding 4 weeks were recruited. Smokers and excessive consumers of caffeine were excluded, as were those who had consumed alcohol or caffeine within the 12 hours prior to a testing session.
Prior to and following the tasks mood was assessed with Bond and Lader scales. This measure has been utilised in numerous pharmacological, psychopharmacological and medical trials. The scales comprise a total of sixteen lines (approximately 100 mm on screen) anchored at either end by antonyms (e.g. alert-drowsy, calm-excited). Subjects indicate their current subjective position between the antonyms on the line. Individual item scores were calculated as % distance along the line. Outcomes comprised three factor analysis derived scores: ‘Alertness’, ‘Calmness’ and ‘Contentment’.
(§3) Following the introductory visit participants attended the laboratory at 8.30 am on four further occasions, one week apart, receiving a different treatment on each occasion. They fasted (no food or drink except for water) and consumed no caffeine or alcohol for at least 12 hours prior to each session. On their first study day participants were randomly allocated to a treatment regime on the Latin square. On arrival on each occasion participants consumed a standard breakfast (40 g Kellogg's All-bran with 150 ml skimmed milk and a glass of water) following which they undertook an initial cognitive/mood assessment comprising completion of the attention tasks (‘Simple’/‘Choice’/‘Four choice’ reaction time) followed by 2 completions of the 10 minute CDB tasks (the first completion was a practice and the second was used for baseline assessment of performance) and the Stroop and Logical Reasoning tasks. They then consumed their treatment for that day. At 120 minutes post-dose they completed the attention tasks then commenced the full 60 minute (i.e. 6 completions of the 10 minutes of tasks) CDB. Following completion of the CDB participants completed the ‘Logical Reasoning’ and the ‘Stroop’ executive function tasks. Mood was assessed with Bond-Lader mood scales pre-treatment and before and after the post-treatment cognitive assessment. The set-up is shown schematically in FIG. 1.
(§4) Statistical analysis for all of the cognitive/fatigue and mood measures derived from the battery were analysed by repeated measures Analysis of Variance (ANOVA) of baseline adjusted data (calculated against pre-dose). Measures with a single post-dose repetition (attention tasks, executive tasks) were analysed by one way ANOVA (condition). Measures with multiple post-dose repetitions (Mood, CDB) were analysed with two way ANOVA (condition×repetition). Planned comparisons (placebo versus each active treatment) were then undertaken on baseline adjusted data from the single completion, or each of the multiple completions, as appropriate, utilising t-tests with Mean Squares Error from the ANOVA (Keppel 1991).

[2] = test system: healthy, young male and female adults; assay: Cognitive Demand Battery (CDB), overall performance; conditions: for Beneficial effect on fatigue / cognitive function, overall statement: general statement, preliminary findings for acetyl-L-carnitine
Description: The working hypothesis underlying this approach is that neural activity is costly in terms of local neural resources (e.g. metabolic substrates) and that the brain is therefore liable to suffer deficiencies in the short term. Any psychoactive properties of a test substance are therefore liable to be more readily apparent during this period of intense cognitive demand and the ‘mental fatigue’ state elicited by prolonged task performance. This paradigm may therefore be more sensitive than the use of less demanding cognitive tasks, particularly if an intervention has an impact on the delivery or utilisation of metabolic substrates.
as §1, §2
Each participant received each treatment in an order counterbalanced by random allocation to a Latin square. Depending on the condition to which the participant was allocated on each day they received 4 capsules containing either 500 mg LC or 500 mg ALC or a placebo which were combined to give a total dose of either:
(§5) The objective of this battery is to assess the impact of a treatment on speed/accuracy and mental fatigue during continuous performance of cognitively demanding tasks. […] The 10 minute battery comprises:
as §3, with “Following completion of the CDB participants completed the ‘Logical Reasoning’ and the ‘Stroop’ executive function tasks.” left out, “The set-up is shown schematically in FIG. 1.” left out
(§6) Statistical analysis for all of the cognitive/fatigue and mood measures derived from the battery were analysed by repeated measures Analysis of Variance (ANOVA) of baseline adjusted data (calculated against pre-dose). Measures with a single post-dose repetition (attention tasks, executive tasks) were analysed by one way ANOVA (condition). Measures with multiple post-dose repetitions (Mood, CDB) were analysed with two way ANOVA (condition×repetition). […]

[3] = test system: healthy, young male and female adults; assay: Cognitive Demand Battery: Serial Threes subtractions
Experimental: as §1, §2, §5
Modified, two minute, computerised versions of the Serial Threes and Serial Sevens tests were utilised. For both tasks a standard instruction screen informed the participant to count backwards in threes or sevens from the given randomly generated number, as quickly and accurately as possible, using the linear number keys to enter each response. Participants were also instructed verbally that if they made a mistake they should continue subtracting from the new, incorrect number. Each three-digit response was entered using the linear number keys on the keyboard with each digit being represented on screen by an asterisk. Pressing the enter key signals the end of each response and clears the three asterisks from the screen. The task was scored for total number of subtractions and number of errors. In the case of incorrect responses, subsequent responses were scored as positive if they were correct in relation to the new number.
as §3, with “Following completion of the CDB participants completed the ‘Logical Reasoning’ and the ‘Stroop’ executive function tasks.” left out, “The set-up is shown schematically in FIG. 1.” left out
as §6

[4] = test system: healthy, young male and female adults; assay: Cognitive Demand Battery: Serial Sevens subtractions
Experimental: as §1, §2, §5
Modified, two minute, computerised versions of the Serial Threes and Serial Sevens tests were utilised. […] The task was scored for total number of subtractions and number of errors. In the case of incorrect responses, subsequent responses were scored as positive if they were correct in relation to the new number.
Following the introductory visit participants attended the laboratory at 8.30 am on four further occasions, one week apart, receiving a different treatment on each occasion. […] Mood was assessed with Bond-Lader mood scales pre-treatment and before and after the post-treatment cognitive assessment. […]
as §6

[5] = test system: healthy, young male and female adults; assay: Cognitive Demand Battery: Rapid Visual Information Processing task (RVIP)
Experimental: as §1, §2, §5
The participants monitored a continuous series of digits for targets of three consecutive odd or three consecutive even digits. The digits were presented at the rate of 100 per minute and the participants responded to the detection of a target string by pressing a response key as quickly as possible. The task is continuous and lasts for 5 minutes, with 8 correct target strings being presented in each minute. The task was scored for percentage of target strings correctly detected, average reaction time for correct detections, and number of false alarms.
as §3, §4

[6] = test system: healthy, young male and female adults; assay: Cognitive Demand Battery: subjective 'mental fatigue' scale
Experimental: as §1, §2, §5
At the end of each set of tasks participants were asked to indicate how mentally fatigued they felt by marking a 100 mm line with the end-points labelled “not at all” and “extremely”.
as §3, with “Following completion of the CDB participants completed the ‘Logical Reasoning’ and the ‘Stroop’ executive function tasks.” left out, “The set-up is shown schematically in FIG. 1.” left out
as §6

[7] = test system: healthy male and female individuals aged between 20 and 40 years; assay: CogState 12 minute Early Phase cognitive test battery
Experimental: Effects of carnitine on cognitive function were studied with a CogState™ 12 minute Early Phase cognitive test battery. The test was developed by CogState, US, and is described in U.S. Pat. No. 7,163,513 B2. The test uses playing cards and computer mazes for measuring the cognitive domains of executive function, psychomotor function, visual attention and visual learning. Tasks correspond to cognitive domains as follows: Maze learning task. […] It was carried out with 20 healthy male and female individuals aged between 20 and 40 years. The test was double-blind and placebo-controlled and studied effects of 500 mg L-carnitine, administered as 736 mg L-carnitine L-tartrate (Carnipure™ tartrate, Lonza AG) in water in a single dose. A single test battery of about 10 min comprised maze learning task, a detection task with playing cards, an identification task with playing cards and a one card learning task. Consecutive accomplishing of the test battery took place twice prior to and hourly after intake of the study preparation over a period of 6 hours.

[8] = 500 mg single dose in water, hourly over 6 hours

In the case of `CC(=O)O[C@H](CC(=O)[O-])C[N+](C)(C)C` [ALC, acetyl-L-carnitine], the “Bond-Lader content rating compared to placebo” value ([1]; 1000 mg single dose, after the post-dose tasks, p=0.015) is reported as “less content”, the “Bond-Lader content rating compared to placebo” value ([1]; 1000 mg single dose, before the post-dose tasks, p=0.001) is reported as “less content” and the “Bond-Lader alert rating compared to placebo” value ([1]; 1000 mg single dose, before undertaking the post-dose tasks, p=0.009) is reported as “less alert”. The “Bond-Lader alertness (summary of findings)” value ([1]; 1000 mg single dose, second post-dose time-point as printed) was “lower levels of alertness”, the “Performance of the CDB in comparison to placebo” value (“Performance of the CDB” for short) ([2]; 1000 mg single dose) was “no evidence of benefits” and the “Beneficial effect on fatigue / cognitive function, overall statement” value [2] was “at best moderate”.
For `C[N+](C)(C)C[C@H](O)CC(=O)[O-]` [LC, L-carnitine], the “Serial 3s number of subtractions compared to placebo” value ([3]; 500 mg single dose, 2nd repetition, p=0.08) was “statistical trends towards the same effect”, the “Serial 3s number of subtractions compared to placebo” value ([3]; 500 mg single dose, 3rd repetition, p=0.09) was “statistical trends towards the same effect” and the “Serial 3s number of subtractions compared to placebo” value ([3]; 500 mg single dose, 4th repetition, planned comparison p=0.006) was “more subtractions”. The “Serial 3s number of subtractions compared to placebo” value ([3]; 500 mg single dose, 6th repetition, p=0.016) was “more subtractions”, the “Serial 3s number of subtractions compared to placebo” value ([3]; 2000 mg single dose, 5th repetition, p=0.04, may be type 1 error) was “more subtractions” and the “Serial 7s number of subtractions compared to placebo” value ([4]; 500 mg single dose, 2nd repetition, p=0.044) was “more subtractions”. For the same compound, the “Serial 7s number of subtractions compared to placebo” value ([4]; 500 mg single dose, 4th repetition, p=0.018) was “more subtractions”, the “Serial 7s number of subtractions compared to placebo” value ([4]; 2000 mg single dose, 4th repetition, p=0.053) was “trend towards more subtractions” and the “RVIP accuracy compared to placebo” value ([5]; 500 mg single dose, 2nd repetition, p=0.015) was “outperformed placebo”. For the same compound, the “RVIP speed of responses compared to placebo” value ([5]; 500 mg single dose, 3rd repetition, p=0.013) was “performed faster”, the “RVIP accuracy compared to placebo” value ([5]; 500 mg single dose, 3rd repetition, p=0.036) was “outperformed placebo” and the “RVIP accuracy compared to placebo” value ([5]; 500 mg single dose, 4th repetition, p=0.07) was “trend towards the same effect”. The “RVIP speed of responses compared to placebo” value ([5]; 500 mg single dose, each of 6 repetitions, significant only at the 3rd) was “performed faster at each repetition”, the “RVIP speed of responses compared to placebo” value ([5]; 2000 mg single dose, 4th repetition, p=0.089) was “trend towards slower responding” and the “Subjective mental fatigue rating compared to placebo” value ([6]; 500 mg single dose, 4th repetition, p=0.065) was “trend towards the same effect”. The “Subjective mental fatigue rating compared to placebo” value ([6]; 500 mg single dose, 6th repetition, p=0.033) was “ratings of fatigue were lower”, the “Subjective mental fatigue rating compared to placebo” value ([6]; 500 mg single dose, after each repetition, numerical, significant only after the last set) was “numerically less ‘mentally fatigued’” and the “Subjective mental fatigue rating compared to placebo” value ([6]; 2000 mg single dose, 5th repetition, p=0.02) was “higher than placebo”. For the same compound, the “Bond-Lader content rating compared to placebo” value ([1]; 500 mg single dose, first (pre-task) post-dose assessment, p=0.004) was “less content”, the “Bond-Lader calm rating compared to placebo” value ([1]; 500 mg single dose, first (pre-task) post-dose assessment, p=0.037) was “less calm” and the “Bond-Lader calm rating compared to placebo” value ([1]; 500 mg single dose, post task assessment, p=0.016) was “more calm”. For the same compound, the “Psychomotor function (detection task)” value ([7]; 500 mg single dose in water, after four, five and six hours) was “decrease of psychomotor function”, the “Higher cognitive processes, such as memory and executive function” value ([7]; 500 mg single dose in water, at the time of decreased psychomotor function (4-6 hours)) was “not impaired” and the “Visual attentional function (identification task)” value [7, 8] was “no significant effect”. For the same compound, the “Visual learning (one card learning task)” value [7, 8] was “no significant effect”, the “Executive function (maze learning task)” value ([7]; 500 mg single dose in water, two hours after intake, individuals without fatigue) was “some evidence for a short-acting benefit” and the “Long time improvement of cognitive function” value ([7]; 500 mg single dose, beyond approximately two hours) was “not observed”. For the same compound, the “Performance of the CDB” value ([2]; 500 mg single dose, planned comparisons) was “significant improvements in performance of the CDB”, the “Performance of the CDB” value ([2]; 2000 mg single dose) was “no evidence of benefits” and the “Beneficial effect on fatigue / cognitive function, overall statement” value [2] was “pronounced”.
